Values joined by “and” are separate entries in the source; they are usually repeats but may differ in a detail not shown here. Equal entries are not always repeated.
Assays:
[1] = test system: TK143b osteosarcoma (constitutive EBV TK); assay: [125I]FIAU imaging and tissue distribution, TK143b tumors
[2] = test system: BC3 lymphoma (KSHV); assay: [125I]FIAU imaging and tissue distribution, BC3 xenograft; assay type: in vivo, SCID mice
Description: (§1) The approach observed in EBV-associated tumors is also applicable to other KSHV-associated tumors as shown in studies on two primary effusion lymphoma (PEL) cell lines that harbor KSHV. […] Finally, when induction with bortezomib was followed by treatment with [^131I]FIAU tumors regressed (FIG. 19C).

[3] = test system: KT gastric cancer (EBV); assay: [125I]FIAU imaging and tissue distribution, KT xenograft
[4] = test system: BCBL1 lymphoma (KSHV); assay: [125I]FIAU imaging and tissue distribution, BCBL1 xenograft; assay type: in vivo, SCID mice
Description: as §1

[5] = test system: EBV(−) osteosarcoma xenografts (V143b); assay: [125I]FIAU imaging, V143b control tumors; assay type: in vivo, mice; conditions: with or without bortezomib
Description: (§2) Quantitative data were not derived from the images except for once instance that employed SPECT-CT (see below). […] The detector material or scintillator crystal is composed of NaI[Tl], which has a pixel size 2 mm×2 mm×6 mm. […] The static acquisition protocol of the LumaGEM™ software provided with the X-SPECT was used.

[6] = test system: Rael Burkitt's lymphoma (EBV); assay: [125I]FIAU imaging and tissue distribution, Rael xenografts; assay type: in vivo, SCID mice
Description: Bortezomib was always administered 24 hours before [^125I]FIAU, also intravenously. […] 2 μg/g of bortezomib stimulated the maximum target to non-target signal ratio at 96 hours after treatment in this cell line. The radioactivity depicted by the arrow in FIG. 14B at the 96 hour time point was within the tumor as shown by concurrent ex vivo gamma counting. Similar results were obtained in animals bearing another EBV(+) Burkitt cell line (Rael) xenograft. […] The percentage of injected dose per gram (% ID/g) derived from the images was 1.13±0.01 and 0.70±0.01 at 72 and 96 hours, respectively. Only one mouse was imaged with SPECT-CT, so the standard deviation (SD) values were derived from the multiple slices of each image.

[7] = test system: EBV(+) Burkitt's lymphoma xenografts (Akata); assay: [125I]FIAU imaging and ex vivo biodistribution, EBV(+) Akata xenografts; assay type: in vivo, SCID mice; conditions: for % ID/g derived from SPECT-CT images, tumor: bortezomib 2 μg/g, one mouse, SD from slices; for % ID/g ± SD, Blood / % ID/g ± SD, Kidney / % ID/g ± SD, Liver / % ID/g ± SD, Muscle / % ID/g ± SD, Spleen / % ID/g ± SD, Tumor: n = 4
Description: 5×10^6 cells were resuspended in 200 μL Matrigel Matrix (ED Biosciences, Bedford, Mass.) and injected subcutaneously near the shoulder of 6-7-week-old male severe combined immunodeficient (SCID) mice.
All work was undertaken in accordance with the regulations of Johns Hopkins Animal Care and Use Committee. Adult male SCID mice (5-6 weeks old) were purchased from the National Cancer Institute (Frederick, Md.). Three days before imaging, all mice received 1 mL intraperitoneal (i.p.) injections of 0.9% NaI solution daily for 3 consecutive days to block the thyroid uptake of free radioiodide. Twenty four hours prior to [^125I]FIAU injection, lytic induction was initiated with bortezomib. Each mouse was injected i.p. with a dose of 2 μg/g of bortezomib. Bortezomib was made fresh in PBS and filter sterilized with a 0.2 μm syringe filter (Millipore, Billerica, Mass.) immediately before each injection. Control mice were injected i.p. with PBS alone. On the day of radiotracer injection, the animals were anesthetized with 2.3 mL/kg of a mixture of 25 mg/mL ketamine and 2 mg/mL acepromazine in 0.9% saline injected i.p. Isoflurane (0.5%-1% at 0.5-1 L/minute) was administered to maintain anesthesia.
Four mice were sacrificed at each indicated time by cervical dislocation. Tumor, liver, spleen, kidney, fat, blood, and muscle were removed and weighed after which the tissue radioactivity was measured using an automated gamma counter. A 0.1 mL sample of blood was also collected. […] The standard deviation (SD) was also calculated.
as §2

[8] = test system: EBV(+) gastric adenocarcinoma (KT); assay: tumor growth, EBV(+) gastric adenocarcinoma (KT) xenograft; conditions: bortezomib induction followed by [131I]FIAU
Description: Bortezomib was administered intravenously at 1.67 μg/gram. […] For imaging or treatment, FIAU was administered 24 hours after bortezomib. In each of the experiments described bortezomib was administered as a single dose.

[9] = scale-up of mouse biodistribution data to the human, MIRD dosimetry (OLINDA)
Description: Murine biodistribution data were converted to equivalent human data for dosimetry by assuming that the organ or tumor to whole-body concentration ratio in the mouse is equivalent to that in the human.
The initial (i.e., 2-h) activity concentration in the mouse tumor of 1.95% ID/g becomes 7×10^−4% ID/g, assuming a 1 gm tumor in the human. At this concentration, and assuming negligible biological clearance of ^131I, as shown in the biodistribution data, the absorbed dose per administered activity to a 1 gm tumor in a 70 kg human is 0.1 mGy/MBq (0.38 rad/mCi). […] The 5 to 20 GBq (135 to 540 mCi) required to deliver this dose-range is well within normal organ tolerance given the normal organ absorbed dose estimates listed in the table. A total administered activity of 20 GBq would result in 0.2 and 0.02 Gy to the kidneys and red marrow, respectively. Based on external beam and radiopeptide experience, the kidneys can tolerate 25 to 27 Gy before the onset of toxicity; the red marrow maximally tolerated dose is 2 Gy. Administration of a 540 mCi dose would likely present logistical problems, but these could be accommodated by fractioning the administration over three to four injections.

[10] = test system: EBV(+) Burkitt's lymphoma cell line (Akata); assay: tumor growth, EBV(+) Burkitt's lymphoma (Akata) xenografts; assay type: in vivo, SCID mice; conditions: bortezomib followed by [131I]FIAU; second cell line
Description: (§3) Therefore, an evaluation of a therapeutic isotope was carried out. As described above, SCID mice engrafted with EBV Burkitt's lymphoma xenografts received either buffer or bortezomib followed the next day by treatment with [^131I]FIAU or no treatment. […] Thus, bortezomib allowed targeting of [^131I]FIAU with therapeutic effect. Other proteasome inhibitors are also likely to be active. Several are in clinical trial.

[11] = test system: human osteosarcoma 143B cells expressing EBV TK; assay: tumor growth, EBV-TK expressing 143B tumors; assay type: in vivo, mice
Description: To determine whether EBV-TK mediated concentration of radioisotope in tumor tissue was adequate to achieve a therapeutic effect, mice with tumors were treated with [^131I]FIAU or buffered saline (FIG. 18A-18C).
(§4) Biostatistics. Linear regression and curve fitting were undertaken carried using GraphPad Prism software version 5.00 for Windows, GraphPad Software, San Diego Calif. USA, www.graphpad.com.

[12] = test system: KSHV(+) primary effusion lymphoma (BCBL1); assay: tumor growth, KSHV(+) primary effusion lymphoma (BCBL1) xenograft; assay type: in vivo, SCID mice; conditions: bortezomib induction followed by [131I]FIAU
Description: as §1

[13] = test system: EBV(+) Burkitt's lymphoma (Rael); assay: tumor growth, EBV(+) Burkitt's lymphoma (Rael) xenografts; assay type: in vivo, SCID mice
Description: as §3, §4

[14] = TK143b, constitutive EBV TK, 4 days p.i., 5 μCi, N 3
[15] = bortezomib induction, 5 days p.i., 5 μCi, N 3
[16] = KT, bortezomib induction, 4 days p.i., 5 μCi, N 3
[17] = bortezomib induction, 4 days p.i., 5 μCi, N 5
[18] = Rael, bortezomib induction, 4 days p.i., 5 μCi, N 4
[19] = total administered activity of 20 GBq

What does the source list for `O=c1[nH]c(=O)n([C@@H]2O[C@H](CO)[C@@H](O)[C@@H]2F)cc1[125I]` [[^125I]FIAU, [^125I]2-fluoro-2′-deoxy-beta-D-5-iodouracil-arabinofuranoside]?
initial activity concentration in the mouse tumor ([1]; 2-h): 1.95 % ID/g; tumor to muscle ratio ([1]; 2 hours post-infusion): 4.6; tumor to muscle ratio ([1]; 24 hours post-infusion (peak)): 205; tumor to muscle ratio ([1]; 96 hours post-infusion): 114; % ID/g ± SD, Kidney [1, 14]: 0.033 ± 0.058 % ID/g; % ID/g ± SD, Liver [1, 14]: 0.013 ± 0.006 % ID/g; % ID/g ± SD, Muscle [1, 14]: 0.015 ± 0.014 % ID/g; % ID/g ± SD, Spleen [1, 14]: 0.027 ± 0.015 % ID/g; % ID/g ± SD, Tumor [1, 14]: 1.667 ± 0.681 % ID/g; tumor imaging ([1]; cell line engineered to express constitutively the EBV-TK): readily imaged; radioactivity levels in the tumor ([1]; from 2 hours until last time point at 96 hours): remained constant; tumor imaging ([2]; after bortezomib): allowed imaging; % ID/g ± SD, Kidney [2, 15]: 0.027 ± 0.003 % ID/g; % ID/g ± SD, Liver [2, 15]: 0.009 ± 0.002 % ID/g; % ID/g ± SD, Muscle [2, 15]: 0.008 ± 0.004 % ID/g; % ID/g ± SD, Spleen [2, 15]: 0.008 ± 0.002 % ID/g; % ID/g ± SD, Tumor [2, 15]: 1.213 ± 0.214 % ID/g; range of uptake as % ID/g (color bar), SPECT-CT ([3]; KT tumor, 72 hours p.i., following bortezomib): 0.68 % ID/g; % ID/g ± SD, Kidney [3, 16]: 0.090 ± 0.030 % ID/g; % ID/g ± SD, Liver [3, 16]: 0.050 ± 0.017 % ID/g; % ID/g ± SD, Muscle [3, 16]: 0.080 ± 0.062 % ID/g; % ID/g ± SD, Spleen [3, 16]: 0.080 ± 0.035 % ID/g; % ID/g ± SD, Tumor [3, 16]: 0.598 ± 0.472 % ID/g; range of uptake as % ID/g (color bar), SPECT-CT ([4]; 48 hours p.i., following bortezomib): 1.53 % ID/g; tumor imaging ([4]; after bortezomib): allowed imaging; % ID/g ± SD, Kidney [4, 17]: 0.167 ± 0.038 % ID/g; % ID/g ± SD, Liver [4, 17]: 0.0617 ± 0.022 % ID/g; % ID/g ± SD, Muscle [4, 17]: 0.078 ± 0.005 % ID/g; % ID/g ± SD, Spleen [4, 17]: 0.064 ± 0.014 % ID/g; % ID/g ± SD, Tumor [4, 17]: 1.100 ± 0.361 % ID/g; tumor uptake on imaging [5]: No tumor uptake was evident; % ID/g ± SD, Kidney [6, 18]: 0.146 ± .054 % ID/g; % ID/g ± SD, Liver [6, 18]: 0.052 ± .027 % ID/g; % ID/g ± SD, Muscle [6, 18]: 0.084 ± .012 % ID/g; % ID/g ± SD, Spleen [6, 18]: 0.064 ± .011 % ID/g; % ID/g ± SD, Tumor [6, 18]: 1.200 ± 0.356 % ID/g; tumor visualization ([6]; following bortezomib, by 30 hours after radiopharmaceutical injection): clearly visualized; % ID/g derived from SPECT-CT images, tumor ([7]; 72 hours after radiopharmaceutical): 1.13±0.01 % ID/g; increase of tumor uptake over baseline after bortezomib ([7]; 96 h, bortezomib vs PBS): ~22 fold; % ID/g derived from SPECT-CT images, tumor ([7]; 96 hours after radiopharmaceutical): 0.70±0.01 % ID/g; % ID/g ± SD, Blood ([7]; Bortezomib treatment, 96 h): 0.022 ± 0.010 % ID/g; % ID/g ± SD, Kidney ([7]; Bortezomib treatment, 96 h): 0.070 ± 0.010 % ID/g; % ID/g ± SD, Liver ([7]; Bortezomib treatment, 96 h): 0.016 ± 0.002 % ID/g; % ID/g ± SD, Muscle ([7]; Bortezomib treatment, 96 h): 0.040 ± 0.005 % ID/g; % ID/g ± SD, Spleen ([7]; Bortezomib treatment, 96 h): 0.060 ± 0.011 % ID/g; % ID/g ± SD, Tumor ([7]; Bortezomib treatment, 96 h): 0.85 % ID/g and 0.850 ± 0.102 % ID/g; % ID/g ± SD, Blood ([7]; PBS treatment, 96 h): 0.033 ± 0.009 % ID/g; % ID/g ± SD, Kidney ([7]; PBS treatment, 96 h): 0.068 ± 0.014 % ID/g; % ID/g ± SD, Liver ([7]; PBS treatment, 96 h): 0.029 ± 0.011 % ID/g; % ID/g ± SD, Muscle ([7]; PBS treatment, 96 h): 0.030 ± 0.010 % ID/g; % ID/g ± SD, Spleen ([7]; PBS treatment, 96 h): 0.014 ± 0.006 % ID/g; % ID/g ± SD, Tumor ([7]; PBS treatment, 96 h): 0.039 % ID/g and 0.039 ± 0.010 % ID/g; tumor visualization, planar gamma imaging ([7]; bortezomib 2 μg/g 24 hours before, 4 days postinjection): clearly visible; time of peak tumor uptake ([7]; postinjection, pretreated with bortezomib): 96 h; tumor uptake, planar gamma imaging ([7]; pretreated with PBS only): no tumor uptake was evident

Which results are given for `O=c1[nH]c(=O)n([C@@H]2O[C@H](CO)[C@@H](O)[C@@H]2F)cc1[131I]` [[^131I]FIAU]?
tumor growth rate [8]: diminished; tumor activity concentration scaled to the human ([9]; assuming a 1 gm tumor in the human): 7×10^−4 % ID/g; absorbed dose to the kidneys [9, 19]: 0.2 Gy; absorbed dose to the red marrow [9, 19]: 0.02 Gy; tumor growth [10]: parallel results; tumor growth rate in chimeric tumors ([11]; 10% of tumor cells harbor the EBV-TK, 1.7 mCi): substantially slowed; tumor growth dose response ([11]; EBV-TK expressing tumors, 1 mCi or 3 mCi): increasing effects on tumor growth; tumor growth slope ([11]; TK tumors, 1.6 mCi IV): flattened; tumor growth [12]: regressed; tumor growth ([13]; bortezomib followed 24 hours later by [131I]FIAU): stopped tumor growth; tumor growth curves vs buffer alone ([13]; buffer followed by [131I]FIAU): similar

Source: patent US20110176998A1, “IMAGING AND THERAPY OF VIRUS-ASSOCIATED TUMORS” (THE JOHNS HOPKINS UNIVERSITY, priority 2007, published 2011)
